According to PubChem BioAssay AID330 (DTP/NCI, 2004):
Several values for one entry are separate records, joined by “and”; a condition that tells them apart may be missing. Equal entries are not always repeated. Toxic doses and inconclusive results are not listed. The calls were made as follows: active = survival T/C of 150% or more; inactive = T/C below 125% in these data.

Tested on: P388 leukemia ip, CD2F1 mice, survival T/C
Experiment: NCI In Vivo Anticancer Drug Screen. Data for tumor model P388 Leukemia (intraperitoneal) in CD2F1 (CDF1) mice
Conditions: endpoint: median survival time, higher = longer survival
Method in brief: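 Mice carrying the transplanted tumor received test compound or vehicle. Survival was recorded in each group, and the value is the treated-group measurement divided by that of the vehicle-treated control group.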

[1] = dose: 50.0 mg/kg/injection, schedule: Q01DX005 (ip), vehicle: saline with Tween-80
[2] = dose: 100.0 mg/kg/injection, schedule: Q01DX005 (ip), vehicle: saline with Tween-80
[3] = dose: 60.0 mg/kg/injection, schedule: Q01DX005 (ip), vehicle: saline with Tween-80
[4] = dose: 120.0 mg/kg/injection, schedule: Q01DX005 (ip), vehicle: saline with Tween-80
[5] = dose: 240.0 mg/kg/injection, schedule: Q01DX005 (ip), vehicle: saline with Tween-80
[6] = dose: 50.0 mg/kg/injection, schedule: Q01DX009 (ip), vehicle: Klucel (hydroxypropylcellulose) (HPC)
[7] = dose: 100.0 mg/kg/injection, schedule: Q01DX009 (ip), vehicle: Klucel (hydroxypropylcellulose) (HPC)
[8] = dose: 50.0 mg/kg/injection, schedule: Q01DX009 (ip), vehicle: saline with Tween-80
[9] = dose: 100.0 mg/kg/injection, schedule: Q01DX009 (ip), vehicle: saline with Tween-80
[10] = dose: 50.0 mg/kg/injection, schedule: Q01DX005 (ip), vehicle: Klucel (hydroxypropylcellulose) (HPC)
[11] = dose: 100.0 mg/kg/injection, schedule: Q01DX005 (ip), vehicle: Klucel (hydroxypropylcellulose) (HPC)
[12] = dose: 200.0 mg/kg/injection, schedule: Q01DX005 (ip), vehicle: Klucel (hydroxypropylcellulose) (HPC)

Measured: T/C

O=S(=O)(O)C(O)c1cccnc1 (stereo not given)
inactive: dose: 100.0 mg/kg/injection, schedule: Q01DX009 (ip), vehicle: saline sonified 100 % of control | dose: 200.0 mg/kg/injection, schedule: Q01DX009 (ip), vehicle: saline sonified 100 % of control | dose: 400.0 mg/kg/injection, schedule: Q01DX009 (ip), vehicle: saline sonified 100 % of control

COc1cccc(N=C(C)C2C(=O)c3ccccc3C2=O)c1
inactive: [1] 109 % of control | [2] 100 % of control | dose: 200.0 mg/kg/injection, schedule: Q01DX005 (ip), vehicle: saline with Tween-80 95 % of control

O=C1C=CC(=O)N1c1ccc(-c2nc3ccccc3o2)cc1
inactive: dose: 6.25 mg/kg/injection, schedule: Q01DX005 (ip), vehicle: saline with Tween-80 109 % of control | dose: 12.5 mg/kg/injection, schedule: Q01DX005 (ip), vehicle: saline with Tween-80 109 % of control | dose: 25.0 mg/kg/injection, schedule: Q01DX005 (ip), vehicle: saline with Tween-80 109 % of control and 111 % of control | [1] 111 % of control

COC(=O)N1c2ccccc2[C@@H](O)[C@@H]1OC
inactive: [3] 119 % of control | [4] 116 % of control | [5] 100 % of control

O=c1cc[nH]c(=O)o1
inactive: dose: 6.25 mg/kg/injection, schedule: Q01DX009 (ip), vehicle: water 108 % of control | dose: 12.5 mg/kg/injection, schedule: Q01DX009 (ip), vehicle: water 119 % of control | dose: 25.0 mg/kg/injection, schedule: Q01DX009 (ip), vehicle: water 124 % of control | dose: 50.0 mg/kg/injection, schedule: Q01DX009 (ip), vehicle: water 121 % of control

NC(CCCCCCC(N)C(=O)c1ccccc1)C(=O)c1ccccc1 (stereo not given)
inactive: [3] 98 % of control | [4] 98 % of control | [5] 91 % of control

CC1=CC[C@@H](Br)C(C)(C)[C@]12CC[C@]1(C)O[C@@H]1C2
inactive: dose: 12.5 mg/kg/injection, schedule: Q01DX005 (ip), vehicle: saline + alcohol 110 % of control | dose: 25.0 mg/kg/injection, schedule: Q01DX005 (ip), vehicle: saline + alcohol 110 % of control | dose: 50.0 mg/kg/injection, schedule: Q01DX005 (ip), vehicle: saline + alcohol 105 % of control | dose: 100.0 mg/kg/injection, schedule: Q01DX005 (ip), vehicle: saline + alcohol 105 % of control

CCOC(=O)/N=[N+](\[O-])c1ccc(Br)cc1
inactive: dose: 12.5 mg/kg/injection, schedule: Q01DX001 (ip), vehicle: Klucel (hydroxypropylcellulose) (HPC) 109 % of control | dose: 25.0 mg/kg/injection, schedule: Q01DX001 (ip), vehicle: Klucel (hydroxypropylcellulose) (HPC) 115 % of control | dose: 50.0 mg/kg/injection, schedule: Q01DX001 (ip), vehicle: Klucel (hydroxypropylcellulose) (HPC) 103 % of control

Cn1c(N)cc2nc3ccccc3n2c1=O
inactive: [3] 96 % of control | [4] 92 % of control | [5] 89 % of control

CN1C(=O)Cn2c(n[nH]c(=O)c2=O)-c2cc(Cl)ccc21
inactive: [6] 95 % of control | [7] 86 % of control

CC1(C)C(c2ccccc2)CC(c2cccc(O)c2)=[N+]1[O-] (stereo not given)
inactive: [6] 97 % of control | [7] 97 % of control | dose: 200.0 mg/kg/injection, schedule: Q01DX009 (ip), vehicle: Klucel (hydroxypropylcellulose) (HPC) 101 % of control

NC(CS(=O)(=O)NO)C(=O)O (stereo not given)
inactive: dose: 60.0 mg/kg/injection, schedule: Q01DX009 (ip), vehicle: saline with Tween-80 97 % of control | dose: 120.0 mg/kg/injection, schedule: Q01DX009 (ip), vehicle: saline with Tween-80 113 % of control | dose: 240.0 mg/kg/injection, schedule: Q01DX009 (ip), vehicle: saline with Tween-80 119 % of control

Cc1cc(O)c(C(c2ccncc2)c2c(O)cc(C)[nH]c2=O)c(=O)[nH]1
inactive: [8] 102 % of control | [9] 95 % of control | dose: 200.0 mg/kg/injection, schedule: Q01DX009 (ip), vehicle: saline with Tween-80 94 % of control

COC(=O)C(CS)NC(=O)CCNC(=O)OCc1ccccc1 (stereo not given)
inactive: dose: 25.0 mg/kg/injection, schedule: Q04DX003 (ip), vehicle: sodium bicarbonate 91 % of control | dose: 50.0 mg/kg/injection, schedule: Q04DX003 (ip), vehicle: sodium bicarbonate 87 % of control | dose: 100.0 mg/kg/injection, schedule: Q04DX003 (ip), vehicle: sodium bicarbonate 96 % of control | dose: 200.0 mg/kg/injection, schedule: Q04DX003 (ip), vehicle: sodium bicarbonate 87 % of control | dose: 400.0 mg/kg/injection, schedule: Q04DX003 (ip), vehicle: sodium bicarbonate 91 % of control

COc1cc(N=Nc2ccccc2)cc(/C=N\NC(=S)Nc2ccccc2)c1O
inactive: [1] 91 % of control | [2] 94 % of control

COc1ccc(C(=O)OC2(C)CC(C)(C)N=[N+]2[O-])cc1 (stereo not given)
inactive: dose: 12.5 mg/kg/injection, schedule: Q01DX009 (ip), vehicle: other 108 % of control | dose: 25.0 mg/kg/injection, schedule: Q01DX009 (ip), vehicle: other 113 % of control | dose: 50.0 mg/kg/injection, schedule: Q01DX009 (ip), vehicle: other 115 % of control | dose: 66.0 mg/kg/injection, schedule: Q01DX009 (ip), vehicle: other 102 % of control | dose: 100.0 mg/kg/injection, schedule: Q01DX009 (ip), vehicle: other 100 % of control | dose: 150.0 mg/kg/injection, schedule: Q01DX009 (ip), vehicle: other 92 % of control | dose: 200.0 mg/kg/injection, schedule: Q01DX009 (ip), vehicle: other 113 % of control

O=c1c2ccccc2cnn1CO
inactive: dose: 100.0 mg/kg/injection, schedule: Q04DX003 (ip), vehicle: saline 114 % of control | dose: 200.0 mg/kg/injection, schedule: Q04DX003 (ip), vehicle: saline 119 % of control

Nc1ncnc2c1ncn2C1(CO)OCC(O)C(O)C1O (stereo not given)
inactive: [10] 101 % of control | [11] 100 % of control | [12] 101 % of control

CN1CC=Nc2c1nc(N)[nH]c2=O
inactive: [8] 98 % of control | [9] 95 % of control

N#Cc1c(C(F)(F)F)cc(-c2cccs2)nc1C(C(=O)Nc1cc(Cl)c(Cl)cc1Cl)c1ccccc1 (stereo not given)
inactive: [10] 87 % of control | [11] 92 % of control | [12] 91 % of control

CC1OC(=S)N(c2cccc3ccccc23)C1=O (stereo not given)
inactive: dose: 100.0 mg/kg/injection, schedule: Q01DX001 (ip), vehicle: saline with Tween-80 93 % of control | dose: 200.0 mg/kg/injection, schedule: Q01DX001 (ip), vehicle: saline with Tween-80 90 % of control | dose: 400.0 mg/kg/injection, schedule: Q01DX001 (ip), vehicle: saline with Tween-80 94 % of control

NC(CC(=O)O)C(=O)OCc1ccccc1 (stereo not given)
inactive: dose: 25.0 mg/kg/injection, schedule: Q01DX009 (ip), vehicle: saline 97 % of control | dose: 50.0 mg/kg/injection, schedule: Q01DX009 (ip), vehicle: saline 100 % of control | dose: 100.0 mg/kg/injection, schedule: Q01DX009 (ip), vehicle: saline 100 % of control | dose: 200.0 mg/kg/injection, schedule: Q01DX009 (ip), vehicle: saline 98 % of control

CCCC1OP(=O)(N(CCOC(C)=O)CCOC(C)=O)OCC1CC (stereo not given)
inactive: [10] 96 % of control | [11] 98 % of control | [12] 96 % of control
